Assay results taken from publication PMC11513920, “Building Metabolically Stable and Potent Anti-HIV Thioether-Lipid Analogues of Tenofovir Exalidex: A thorough Pharmacological Analysis” (Journal of Medicinal Chemistry, 2024).

Tests used:
[1] = system: HIV-1 subtype C strain MJ4; assay: Single-cycle non-replicating HIV pseudoviral luciferase assay in HEK293T cells; details: Human immunodeficiency virus 1, HEK-293T, read-out: HIV IC50
Procedure: (§9) Second, HIV IC50 and cellular CC50 were determined with a pseudoviral, whole (HEK293T) cell, nonreplicative HIV assay, using the HIV-1 subtype C strain MJ4 (refer to Experimental Methods). To account for the unique amphiphilic properties of TXL and the novel HTP-based prodrugs, all compounds were formulated in a human serum albumin (HSA) solution (5:1 drug:protein).
(§10) Assessment of cytotoxicity and antiviral activity of all final compounds in vitro was conducted according to previously reported procedures.[39] In summary, human embryonic kidney (HEK293T) cells maintained in high glucose (25 mM), Dulbecco’s modified Eagle’s medium (DMEM) supplemented with fetal bovine serum (10%), sodium pyruvate (1 mM), L-glutamine (2 mM), HEPES (25 mM), and gentamicin (50 μg/mL) were used for determinations. The cells were maintained in an incubator at 37 °C under 5% CO2 in a humidified atmosphere. For both cytotoxicity and antiviral screening, all compounds were evaluated in duplicate in at least two independent experiments. All final compounds were formulated with human serum albumin (HSA, 5:1 compound to HSA molar ratio) and subsequently diluted with complete DMEM to 200 μM. Fifty microliters of test compound serial dilutions (3-fold) were prepared in 96-well culture plates, after which 50 μL of HEK293T cells (2 × 10^4 cells/well) was added. […] Cytotoxicity was then assessed by quantifying cell viability using the CellTiter 96 Aqueous One Solution Cell Proliferation Assay (Promega, Madison, WI) or resazurin sodium salt (cat# R7017, Merck, Darmstadt, Germany).[61] […] Antiviral activity was then assessed using a single-cycle, nonreplicating, envelope deleted HIV pseudoviral in vitro assay.[62],[63] The assay relies on the introduction of the firefly luciferase gene into HEK293T cells through infection with HIV-like viral particles, containing Reverse Transcriptase (RT) and Integrase (IN) from the HIV-1 subtype C strain MJ4.[64] The expression of the luciferase in the cells is directly proportional to the level of infection by the HIV-like viral particles and can be used to assess the inhibition of HIV-1 RT and IN. To evaluate anti-HIV activity, 3-fold serial dilutions of all final compounds were prepared in 50 μL over the noncytotoxic concentration range (as determined from the cytotoxicity screens described above) in 96-well culture plates. HEK293T cells (2 × 10^4 cells/well) and HIV-like viral particles, standardized to produce a luminescence signal of 1 × 10^6 relative light units (RLUs) in the growth medium only control, were combined, and 50 μL was added to the wells containing serially diluted test compounds. […] The expression of luciferase was subsequently quantified by adding 100 μL of the Bright-Glo Luciferase Assay substrate (Promega, Madison, WI) to each well of the 96-well plates. After incubation at rt for 3 min, luminescence was quantified on the GloMax Explorer Multimode Microplate Reader (Promega, Madison, WI).

[2] = HepaRG cellular metabolic stability; details: human, other cell line; for hepatocyte CLint at 20 μM: HepaRG Clint,u, calculated from cellular t1/2; for half-life at 20 μM: HepaRG t1/2, after 3 h loading at 20 μM, 37 °C
Source text: (§11) Naturally, due the metabolic complexity of HepaRG cells, we specifically analyzed prodrug cellular uptake and stability, as represented by Cmax and intrinsic clearance (Clint,u) accordingly (Figure 7 and Table 9).
(§12) The HepaRG cell line (HPRGC10, Thermo Fisher Scientific) was used to evaluate the cellular permeability and metabolic stability for select final compounds in vitro. The cells were initially thawed with working media composed of HepaRG Thaw, Plate, & General Purpose Medium Supplement (HPRG670), Williams Medium E (100 mL), and GlutaMax (1 mL), all purchased from Thermo Fisher Scientific. […] After the thawing medium was aspirated from each well, the cells were cultured for an additional 6 days with working media consisting of HepaRG Maintenance/Metabolism Medium Supplement (HPRG720), Williams Medium E (500 mL), and GlutaMax (1 mL), all purchased from Thermo Fisher Scientific. Upon completing the 7-day culture period, HepaRG cells were plated in enough wells to allow for duplicate analysis of prodrugs in two independent cellular uptake or metabolic stability experiments. All studied compounds were formulated with human serum albumin (HSA, 5:1 compound to HSA molar ratio) and subsequently diluted to a 20 μM final concentration with assay medium composed of serum-free INVITROGRO HI Medium and TORPEDO Antibiotic Mix purchased from BioIVT. For cellular uptake determinations, the maintenance/metabolism medium was first aspirated from each well, and then the plated cells were spiked with 1.0 mL of test compound stock solution. Subsequently, the plate was incubated at 37 °C under 5% CO2 environment over the desired time course (seven data points/compound). Blank wells not treated with prodrug were included in assay runs as controls and initial time points (0 min). At each time point, the test compound solution was removed from the appropriate wells, and the plated cells were washed with 1.0 mL of DPBS twice. The HepaRG cells were then extracted with 500 μL of cold ISTD solution (1 μM 7-ethoxy-d5-coumarin in 70/30 MeOH/H2O), and the quenched aliquots were centrifuged at 15,000 g for 10 min at 4 °C. […] After obtaining prodrug Cmax and Tmax values from the cellular uptake assay, HepaRG metabolic stability was then assessed. Following the initial 7-day culture procedure, the maintenance/metabolism medium was aspirated from each well, and the plated cells were spiked with 1.0 mL of test compound stock solution. […] The test compound solution was then removed from each well and replaced with untreated dilution medium (i.e., serum-free INVITROGRO HI Medium and TORPEDO Antibiotic Mix), initializing the stability determination. The HepaRG plate was once more incubated at 37 °C under 5% CO2 atmosphere over the desired time course (nine data points/compound), and sample preparation and analysis were handled in identical fashion to cellular uptake experiments.

HepaRG cells [3] = assay: HepaRG cellular metabolic stability; details: for HepaRG t1/2: after 3 h loading at 20 μM, 37 °C
Source text: as §11, §12

[4] = Human liver microsome stability; details: for remaining at 2 h, 3 μM / half-life at 3 μM / half-life at 2.083 h, 3 µM: human, microsomes; for remaining at 2 h, 3 μM: HLM % remaining; for remaining at 2 h, 3 μM / HLM % remaining: relative percent remaining of prodrug at 120 min; for half-life at 3 μM / half-life at 2.083 h, 3 µM: HLM t1/2, HLM 1 mg/mL, 3 μM compound, NADPH, 37 °C, 120 min course
Procedure: Human liver microsomes (HLMs, 20 mg/mL) and CD-1 mouse liver microsomes (MLMs, 20 mg/mL) were purchased from Xenotech. NADPH was purchased from Sigma-Aldrich and prepared in 10 mM stock solutions of distilled H2O (Invitrogen UltraPure). […] Test compounds and positive controls were initially dissolved in MeOH to make 10 mM stock solutions. Sample solutions were then further diluted in 70/30 MeOH/H2O to 500 μM. Next, the reactions were prepared by mixing human or mouse liver microsomes (55 μL) with potassium phosphate buffer (100 mM, 928 μL) in 1.5 mL Eppendorf tubes. The test compounds (6.6 μL of 500 μM solution) were subsequently added to the suspensions, and the reaction mixtures were incubated at 37 °C for 5 min. Afterward, the liver microsome reactions were initiated with 110 μL of 10 mM NADPH and further incubated at 37 °C for the designated time course of the study. […] Each test compound was run in tandem with positive and negative control experiments for quality assurance. Positive control reactions were conducted at a final volume of 550 μL for a single run of each time point.
For both LM and plasma stability assays, each data point was analyzed in duplicate using in-between blank washes to avoid carry over and to equilibrate the column for the subsequent runs. Averages of these duplicate for individual compounds at each time point were then normalized to the data at 0 min, representing 100% test compound remaining or 0% metabolism. Half-lives (t1/2) were calculated by plotting ln of % test compound remaining versus time and performing linear regression to determine slope.
Metabolic Stability Assays
Liver Microsome Stability
Liver Microsome Stability Assay Setup Example
Quenching Mixture: 100 µL MeOH with ISTD (2 µM d5-7-ethoxycoumarin).
Final Volume After Quenching: 200 µL (100 µL from reaction mixture + 100 µL quencher
solution; ISTD final concentration of 1.0 µM).

[5] = Cellular cytotoxicity (cell viability, CellTiter 96 or resazurin); details: human, CC50, HEK293T cells, compounds formulated with HSA (5:1)
Procedure: as §9, §10

HepaRG cellular uptake = details: human, HepaRG Cmax, 20 μM, HSA formulation 5:1, recorded after 3 h incubation
Source text: as §11, §12

HepaRG cells [6] = assay: HepaRG cellular uptake; details: 20 µM
Source text: as §11, §12

Mouse plasma stability = type: in vitro ADME; details: male, BALB/C, mouse, plasma; 3 μM, 37 °C, 240 min course; read-out: mouse plasma t1/2
Procedure: (§1) Human plasma (lithium heparin (LiHep) mixed, gender pooled, 0.2 μm filtered) and mouse plasma (BALB/C, LiHep mixed, male pooled, 0.2 μm filtered) were purchased from BioIVT. Procaine (Sigma-Aldrich) served as a positive control for both human and mouse plasma experiments. […] Next, the human or mouse plasma (994 μL) was aliquoted into 1.5 mL Eppendorf tubes with duplicates (reactions A and B) being prepared for each compound. The plasma was then incubated at 37 °C for 10 min. […] This procedure provided duplicate experiments with a final volume of 1000 μL (<0.2% organic solvent content) and a final test compound concentration of 3 μM. Aliquots (100 μL) were removed from each reaction mixture at 0, 30, 60, 120, and 240 min time intervals and quenched with 150 μL of cold ISTD solution (2 μM 7-ethoxy-d5-coumarin in MeOH). […] The positive control reaction was conducted at a final volume of 1000 μL for a single run of each time point. Finally, the negative control experiment was conducted with test compounds in Dulbecco’s phosphate buffered saline without calcium and magnesium (DPBS, Fisher Scientific, 143 μL) and analyzed at the 240 min time point.
(§2) Plasma Stability Assay Setup Example
(§3) Test Compound: 994 µL Human or Mouse Plasma + 6.0 µL TC (500 µM, Vial A).
(§4) 994 µL Human or Mouse Plasma + 6.0 µL TC (500 µM, Vial B).
(§5) Positive Control: 994 µL Human or Mouse Plasma + 6.0 µL Procaine (500 µM).
(§6) Negative Control: 142 µL DPBS (1X, pH 7.1-7.3) + 0.9 µL TC (500 µM).
(§7) Quenching Mixture: 150 µL MeOH with ISTD (2 µM d5-7-ethoxycoumarin).
(§8) Final Volume After Quenching: 250 µL (100 µL from reaction mixture and 150 µL quencher
solution; ISTD final concentration of 1.2 µM). […]

Human plasma stability = type: in vitro ADME; details: both sexes, human, plasma; 3 μM, 37 °C, 240 min course; read-out: human plasma t1/2
Procedure: as §1, §2, §3, §4, §5, §6, §7, §8
solution; ISTD final concentration of 1.2 µM).
Human Plasma Stability of Compound 2a at 37 °C
Figure S29. In vitro human plasma stability of 2a (5 points over 240 min) with procaine serving

| SMILES | remaining at 2 h, 3 μM [4] | half-life at 3 μM [4] | CC50 at 48 h [5] | half-life at 2.083 h, 3 µM [4] | also measured |
| --- | --- | --- | --- | --- | --- |
| C[C@H](Cn1cnc2c(N)ncnc21)OCP(=O)(O)OCCCSCCCCCCCCCCCCC#CC(C)(C)C.N [15e] | 71% | > 120 min | > 100 µM |  | IC50 [1]: 0.196 µM; hepatocyte CLint at 20 μM [2]: 18 to 19 µL/min/1e6 cells; half-life at 20 μM [2]: 67 to 71 min; HepaRG t1/2 (HepaRG cells [3]): 66.6 ± 5.0 min; HepaRG Clint,u (HepaRG cells [3]; calculated from cellular t1/2): 18.9 μL/min/million cells; Cmax at 3 h, 20 μM (HepaRG cellular uptake): 242 ± 5.5 ng/mL; mean prodrug concentration in HepaRG cells (HepaRG cells [6]; 0.5 h): 169.76 ng/mL; mean prodrug concentration in HepaRG cells (HepaRG cells [6]; 1 h): 211.84 ng/mL; mean prodrug concentration in HepaRG cells (HepaRG cells [6]; 2 h): 233.02 ng/mL; mean prodrug concentration in HepaRG cells (HepaRG cells [6]; 3 h): 241.98 ng/mL; mean prodrug concentration in HepaRG cells (HepaRG cells [6]; 4 h): 281.89 ng/mL; mean prodrug concentration in HepaRG cells (HepaRG cells [6]; 6 h): 321.96 ng/mL |
| C[C@H](Cn1cnc2c(N)ncnc21)OCP(=O)(O)OCCCSCCCCCCCCCCC#Cc1ccccc1.N [15f] |  | 71 min | > 100 µM | 71.3 ± 1.1 min |  |
| C[C@H](Cn1cnc2c(N)ncnc21)OCP(=O)(O)OCCCSCCCCCCCCCCC#Cc1ccc(F)cc1.N [15g] | 67% | > 120 min | > 100 µM |  |  |
| C[C@H](Cn1cnc2c(N)ncnc21)OCP(=O)(O)OCCCSCCCCCCCCCCC#CC1CCCCC1.N [15h] | 67% | > 120 min | > 100 µM |  | HLM % remaining [4]: 70% |
| C[C@H](Cn1cnc2c(N)ncnc21)OCP(=O)(O)OCCCSCCCCCCCCCCCCCCC(C)(C)C.N [16e] | 95% | > 120 min | 24 ± 1.4 µM |  | IC50 [1]: 0.177 µM; hepatocyte CLint at 20 μM [2]: 10.2 µL/min/1e6 cells; half-life at 20 μM [2]: 123 min; HepaRG t1/2 (HepaRG cells [3]): 123.1 ± 3.0 min; HLM % remaining [4]: > 95%; Cmax at 3 h, 20 μM (HepaRG cellular uptake): 1100 ± 63.6 ng/mL; mean prodrug concentration in HepaRG cells (HepaRG cells [6]; 0.5 h): 625.22 ng/mL; mean prodrug concentration in HepaRG cells (HepaRG cells [6]; 1 h): 984.12 ng/mL; mean prodrug concentration in HepaRG cells (HepaRG cells [6]; 3 h): 1100.03 ng/mL; mean prodrug concentration in HepaRG cells (HepaRG cells [6]; 4 h): 1000.18 ng/mL; mean prodrug concentration in HepaRG cells (HepaRG cells [6]; 6 h): 1196.77 ng/mL |
| C[C@H](Cn1cnc2c(N)ncnc21)OCP(=O)(O)OCCCSCCCCCCCCCCCCc1ccccc1.N [16f] |  | 68 min | > 100 µM | 68.4 ± 0.1 min |  |
| C[C@H](Cn1cnc2c(N)ncnc21)OCP(=O)(O)OCCCSCCCCCCCCCCCOc1ccccc1.N [23a] |  | 8 min | > 100 µM | 8.4 ± 0.1 min |  |
| C[C@H](Cn1cnc2c(N)ncnc21)OCP(=O)(O)OCCCSCCCCCCCCCCCSc1ccccc1.N [23b] |  |  | > 100 µM | 7.9 ± 0.2 min |  |
| C[C@H](Cn1cnc2c(N)ncnc21)OCP(=O)(O)OCCCSCCCCCCCCCCCOc1ccc(F)cc1.N [23c] |  | 48 to 50 min | > 100 µM | 49.7 ± 0.03 min |  |
| C[C@H](Cn1cnc2c(N)ncnc21)OCP(=O)(O)OCCCSCCCCCCCCCCCOC1CCCCC1.N [23d] |  | 48 to 50 min | > 100 µM | 47.9 ± 0.4 min |  |
| COC(=O)CCCCCCCCCCCCCCCSCCCOP(=O)(O)CO[C@H](C)Cn1cnc2c(N)ncnc21.N [23e] |  |  | > 100 µM | 5.5 ± 0.3 min |  |
| CCN(CC)CCOC(=O)c1ccc(N)cc1 [Procaine, reference compound] |  |  |  |  | half-life at 3 μM (Mouse plasma stability): 0.7 min; half-life at 3 μM (Human plasma stability): 0.4 min |
